How the values were obtained:
HT-29 = test: cells; conditions: Homo sapiens, HT-29, 48 h; for GI50: read-out: GI50 HT29; for CC50: read-out: LC50 HT29; for IC (TGI): read-out: TGI HT29
How it was run: (§1)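 Colorimetric SRB read (490 nm) on triplicate wells after 48 h at 37 °C, 5% CO2. Dose range 10 to 10^−8 μg/ml; 5×10^3 cells/well pre-attached 18 h.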

A-549 = test: cells; conditions: Homo sapiens, A549, 48 h; for GI50: read-out: GI50 A549; for CC50: read-out: LC50 A549; for IC (TGI): read-out: TGI A549
How it was run: as §1

LoVo = test: cells; conditions: Homo sapiens, LoVo, 48 h; for GI50: read-out: LOVO GI50; for CC50: read-out: LOVO LC50; for IC (TGI): read-out: LOVO TGI
How it was run: as §1

K-562 = test: Inhibition of cells growth by colorimetric assay (SRB); conditions: Homo sapiens, K562, 48 h; for GI50: read-out: K562 GI50; for CC50: read-out: K562 LC50; for IC (TGI): read-out: K562 TGI
How it was run: as §1

LNCaP = test: as above; conditions: Homo sapiens, LNCaP, 48 h; for GI50: read-out: GI50 LNCAP; for CC50: read-out: LC50 LNCAP; for IC (TGI): read-out: TGI LNCAP
How it was run: as §1

IGROV-ET = test: as above; conditions: Homo sapiens, 48 h; for GI50: read-out: IGROV-ET GI50; for CC50: read-out: IGROV-ET LC50; for IC (TGI): read-out: IGROV-ET TGI
How it was run: as §1

PANC-1 = test: as above; conditions: Homo sapiens, PANC-1, 48 h; for GI50: read-out: PANC-1 GI50; for CC50: read-out: PANC-1 LC50; for IC (TGI): read-out: PANC-1 TGI
How it was run: as §1

LoVo-Dox = test: as above; conditions: Homo sapiens, 48 h; for GI50: read-out: LOVO-DOX GI50; for CC50: read-out: LOVO-DOX LC50; for IC (TGI): read-out: LOVO-DOX TGI
How it was run: as §1

HeLa = test: as above; conditions: Homo sapiens, HeLa, 48 h; for GI50: read-out: HELA GI50; for CC50: read-out: HELA LC50; for IC (TGI): read-out: HELA TGI
How it was run: as §1

SK-MEL-28 = test: as above; conditions: Homo sapiens, SK-MEL-28, 48 h; for GI50: read-out: GI50 MEL-28; for CC50: read-out: LC50 MEL-28; for IC (TGI): read-out: TGI MEL-28
How it was run: as §1

IGROV-1 = test: as above; conditions: Homo sapiens, IGROV-1, 48 h; for GI50: read-out: IGROV GI50; for CC50: read-out: IGROV LC50; for IC (TGI): read-out: IGROV TGI
How it was run: as §1

HeLa-APL = test: as above; conditions: Homo sapiens, 48 h; for GI50: read-out: HELA-APL GI50; for CC50: read-out: HELA-APL LC50; for IC (TGI): read-out: HELA-APL TGI
How it was run: as §1

SK-BR-3 = test: as above; conditions: Homo sapiens, SK-BR-3, 48 h; for GI50: read-out: SK-BR3 GI50; for CC50: read-out: SK-BR3 LC50; for IC (TGI): read-out: SK-BR3 TGI
How it was run: as §1

DU-145 = test: as above; conditions: Homo sapiens, DU-145, 48 h; for GI50: read-out: GI50 DU145; for CC50: read-out: LC50 DU145; for IC (TGI): read-out: TGI DU145
How it was run: as §1

In the case of `COc1c(C)cc2c(c1O)[C@H]1N[C@@H](C2)[C@H](O)N2C1[C@@H]1SCC(NC(C)=O)C(=O)OC[C@H]2c2c3c(c(C)c(OC(C)=O)c21)OCO3` (stereo partly drawn) [compound 36], the GI50 (HT-29) is reported as 2.73 nM, the CC50 (HT-29) is reported as 15600 nM and the IC (TGI) (HT-29) is reported as 11.7 nM. It also gave a GI50 (A-549) of 5.56 nM, a CC50 (A-549) of 83.8 nM and an IC (TGI) (A-549) of 22.9 nM. For the same compound, the GI50 (LoVo) was 2.12 nM, the CC50 (LoVo) was 15.6 nM and the IC (TGI) (LoVo) was 5.91 nM. The GI50 (K-562) was 0.246 nM, the CC50 (K-562) was 5.11 nM and the IC (TGI) (K-562) was 0.7 nM. For the same compound, the GI50 (LNCaP) was 0.46 nM, the CC50 (LNCaP) was 5.06 nM and the IC (TGI) (LNCaP) was 1.37 nM. The GI50 (IGROV-ET) was 27.7 nM, the CC50 (IGROV-ET) was 15600 nM and the IC (TGI) (IGROV-ET) was 71.7 nM. For the same compound, the GI50 (PANC-1) was 2.82 nM, the CC50 (PANC-1) was 2600 nM and the IC (TGI) (PANC-1) was 9.72 nM. The GI50 (LoVo-Dox) was 246 nM, the CC50 (LoVo-Dox) was 15600 nM and the IC (TGI) (LoVo-Dox) was 1090 nM. The GI50 (HeLa) was 1.46 nM, the CC50 (HeLa) was 9.82 nM and the IC (TGI) (HeLa) was 3.85 nM. It also gave a GI50 (SK-MEL-28) of 1.84 nM, a CC50 (SK-MEL-28) of 8.71 nM and an IC (TGI) (SK-MEL-28) of 4.01 nM. The GI50 (IGROV-1) was 1.12 nM, the CC50 (IGROV-1) was 10.4 nM and the IC (TGI) (IGROV-1) was 3.79 nM. For the same compound, the GI50 (HeLa-APL) was 1.85 nM, the CC50 (HeLa-APL) was 10 nM and the IC (TGI) (HeLa-APL) was 4.3 nM. It also gave a GI50 (SK-BR-3) of 2.87 nM, a CC50 (SK-BR-3) of 15.4 nM and an IC (TGI) (SK-BR-3) of 6.65 nM. For the same compound, the GI50 (DU-145) was 3.58 nM, the CC50 (DU-145) was 10400 nM and the IC (TGI) (DU-145) was 9.55 nM.

For `CCCCCCCCCCCCCCCC(=O)NC1CS[C@@H]2c3c(OC(C)=O)c(C)c4c(c3[C@H](COC1=O)N1C2[C@@H]2N[C@@H](Cc3cc(C)c(OC)c(O)c32)[C@@H]1O)OCO4` (stereo partly drawn) [compound 38], the GI50 (HT-29) was 653 nM, the CC50 (HT-29) was 4730 nM and the IC (TGI) (HT-29) was 1670 nM. The GI50 (A-549) was 473 nM, the CC50 (A-549) was 4710 nM and the IC (TGI) (A-549) was 1420 nM. The GI50 (LoVo) was 358 nM, the CC50 (LoVo) was 2510 nM and the IC (TGI) (LoVo) was 793 nM. The GI50 (K-562) was 193 nM, the CC50 (K-562) was 1540 nM and the IC (TGI) (K-562) was 510 nM. The GI50 (LNCaP) was 338 nM, the CC50 (LNCaP) was 796 nM and the IC (TGI) (LNCaP) was 518 nM. It also gave a GI50 (IGROV-ET) of 365 nM, a CC50 (IGROV-ET) of 1480 nM and an IC (TGI) (IGROV-ET) of 675 nM. The GI50 (PANC-1) was 616 nM, the CC50 (PANC-1) was 4500 nM and the IC (TGI) (PANC-1) was 1380 nM. The GI50 (LoVo-Dox) was 1540 nM, the CC50 (LoVo-Dox) was 6150 nM and the IC (TGI) (LoVo-Dox) was 3080 nM. The GI50 (HeLa) was 317 nM, the CC50 (HeLa) was 935 nM and the IC (TGI) (HeLa) was 545 nM. For the same compound, the GI50 (SK-MEL-28) was 272 nM, the CC50 (SK-MEL-28) was 860 nM and the IC (TGI) (SK-MEL-28) was 483 nM. It also gave a GI50 (IGROV-1) of 381 nM, a CC50 (IGROV-1) of 4180 nM and an IC (TGI) (IGROV-1) of 786 nM. For the same compound, the GI50 (HeLa-APL) was 295 nM, the CC50 (HeLa-APL) was 1020 nM and the IC (TGI) (HeLa-APL) was 549 nM. It also gave a GI50 (SK-BR-3) of 194 nM, a CC50 (SK-BR-3) of 1070 nM and an IC (TGI) (SK-BR-3) of 457 nM. For the same compound, the GI50 (DU-145) was 286 nM, the CC50 (DU-145) was 1110 nM and the IC (TGI) (DU-145) was 564 nM.
